Patent US7825121B2, “Piperazine derivatives useful as CCR5 antagonists” (Schering Corporation, priority 1999, dated 2010)
Structures can show the parent of a compound that is named as a salt.

Tests used:
[1] = biological target: T1, human CCR5 chemokine receptor (Homo sapiens, UniProt P51681); assay: CCR5 membrane binding assay (inhibition of RANTES binding); conditions: 125I-RANTES, membranes from NIH 3T3 cells expressing human CCR5
T1 construct: expressed in transfected cells; host or cells: NIH 3T3 cells (murine), membranes
T1 sequence (P51681 whole entry): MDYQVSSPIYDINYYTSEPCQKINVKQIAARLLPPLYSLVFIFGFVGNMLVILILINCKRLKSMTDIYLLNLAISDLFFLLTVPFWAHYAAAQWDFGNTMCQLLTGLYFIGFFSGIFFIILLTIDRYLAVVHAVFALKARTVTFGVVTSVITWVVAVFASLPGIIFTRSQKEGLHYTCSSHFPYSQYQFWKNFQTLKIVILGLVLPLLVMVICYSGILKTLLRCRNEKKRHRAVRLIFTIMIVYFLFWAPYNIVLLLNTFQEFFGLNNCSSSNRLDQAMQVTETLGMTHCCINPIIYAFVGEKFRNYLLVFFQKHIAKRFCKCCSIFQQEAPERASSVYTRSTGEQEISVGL
Protocol: CCR5 Membrane Binding Assay:
A high throughput screen utilizing a CCR5 membrane binding assay identifies inhibitors of RANTES binding. This assay utilizes membranes prepared from NIH 3T3 cells expressing the human CCR5 chemokine receptor which have the ability to bind to RANTES, a natural ligand for the receptor. […] Compounds are serially diluted over a wide range of 0.001 ug/ml to 1 ug/ml and tested in triplicates. Reaction cocktails are harvested through glass fiber filters, and washed thoroughly.
In the table, “Ex. No.” stands for “Example Number” and “nM” stands for “nanomolar.”

[2] = Profiling of Vicriviroc and metabolites in plasma, urine and feces, human; format: in vivo
Protocol: (§1) HPLC column was maintained at room temperature for all LC-MS and LC-MS^n experiments. The mobile phase, which consisted of 95% 10-mM ammonium acetate (pH 6.0) containing 5% acetonitrile (A) and 95% acetonitrile and 5% water (B), was maintained at a constant flow rate (1 mL/min). For all LC-MS experiments, the column effluent was split to divert 20-25% into TSQ Quantum (ThermoElectron, San Jose, Calif.) mass spectrometer and the balance into a Flow Scintillation Analyzer (FSA) analyzer.
(§2) All LC-MS and LC-MS/MS experiments were performed using a TSQ mass spectrometer (ThermoElectron, San Jose, Calif.) nominally operated under the conditions listed below:
(§3) Radiochromatograms from study samples were examined to locate radioactive peaks corresponding to metabolites. After correcting for the delay time (0.2-0.5 min), each radiolabelled peak was examined for possible molecular ions related to the drug and/or its putative metabolites.

[3] = Profiling of Vicriviroc and metabolites in plasma, urine and feces, monkey; format: in vivo, Monkey (Cynomolgus macaque)
Protocol: as §1, §2, §3

[4] = Profiling of Vicriviroc and metabolites in plasma, urine and feces, rat; format: in vivo, Rat (Sprague Dawley)
Protocol: as §1, §2, §3

[5] = Excretion of radioactivity after single oral dose of 14C-Vicriviroc, monkey; format: in vivo, Monkey (Cynomolgus macaque); conditions: 5 mg/kg single oral, total 0-432 hr
Protocol: (§4) [drawing 410] was synthesized at Schering-Plough Research Institute (Kenilworth, N.J.) and had >97% radiochemical purity.
(§5) Sample Collection: Urine and feces over selected intervals and blood at selected time points were collected from healthy male volunteers, monkeys and rats through 336-hr, 432-hr and 168-hr post dose, respectively. Radioactivity: Total radioactivity was measured using liquid scintillation spectrometer (LSS). Sample Processing for Profiling and Characterization of Metabolites: Sample Pooling: For each species, plasma samples were pooled across subjects/animals by time point. All the other matrices were first pooled for a desired collection interval within each subject/animal and then across subjects/animals to obtain a composite sample containing >90% of the radioactivity excreted in each respective matrix.

[6] = Excretion of radioactivity after single oral dose of 14C-Vicriviroc, rat; format: in vivo, Rat (Sprague Dawley); conditions: 6 mg/kg single oral, total 0-168 hr
Protocol: as §4, §5

Work on Cc1ccnc(C)c1C(=O)N1CCC(N2CCN(C(c3ccccc3)c3ccccc3)[C@@H](C)C2)CC1 [Example 3C] yielded a Ki [1] of 9.97 nM.

For Cc1cccc(C)c1C(=O)N1CCC(N2CCN([C@@H](C)c3ccc(Cl)cc3)[C@@H](C)C2)CC1 [Example 13], the melting point was 180 °C (dec.).

For Cc1ncnc(C)c1C(=O)N1CCC(C)(N2CCN(C(COC3OC(C(=O)O)C(O)C(O)C3O)c3ccc(C(F)(F)F)cc3)C(C)C2)CC1 (centres unmarked) [Example M35, O-desmethyl-VIC-glucuronide], the “circulating drug derived component in plasma” value ([2]; human plasma) was “prominent circulating metabolite”, the “% of the dose in urine” value ([2]; human urine) was 11% and the “circulating drug derived component in plasma” value ([3]; monkey plasma) was “prominent circulating metabolite”. The “% of the dose in urine” value ([3]; monkey urine) was 3%, the “circulating drug derived component in plasma” value ([4]; rat plasma) was “only detected in trace quantities” and the “% of the dose in urine” value ([4]; rat urine) was “less than 1%”.

Cc1cccc(C)c1C(=O)N1CCC(N2CCN([C@@H](C)c3ccc(-c4ccccc4)cc3)[C@@H](C)C2)CC1 [Example 16] showed a Ki [1] of 60 nM and a melting point of 190 °C.

CCC[C@@H](c1ccc(OC(F)(F)F)cc1)N1CCN(C2(C)CCN(C(=O)c3c(C)cc(NC(=O)NCC)cc3C)CC2)C[C@@H]1C [Example 30B] showed a melting point of 219 °C.

In the case of CCC[C@@H](c1ccc(OC(F)(F)F)cc1)N1CCN(C2(C)CCN(C(=O)c3c(C)cccc3C)CC2)C[C@@H]1C [Example 30], the melting point is reported as 237 °C.

Compound Cc1cccc(C)c1C(=O)N1CCC(N2CCN([C@@H](C)c3ccc(I)cc3)[C@@H](C)C2)CC1 [Example 11] has a Ki [1] of 10.5 nM.

Work on CCNC(=O)Nc1cc(C)c(C(=O)N2CCC(C)(N3CCN(C(c4ccccc4)c4ccccc4)[C@@H](C)C3)CC2)c(C)c1 [Example 30D] yielded a melting point of 177 to 189 °C.

Cc1ncnc(C)c1C(=O)N1CCC(C)(N2CCN([C@@H](Cc3ccccc3)c3ccc(C(F)(F)F)cc3)[C@@H](C)C2)CC1 gave a melting point of 187 to 196 °C.

Compound CCC[C@@H](c1ccc(OC(F)(F)F)cc1)N1CCN(C2(C)CCN(C(=O)c3c(C)ncnc3C)CC2)C[C@@H]1C [Example 30A] has a melting point of 241 °C.

In the case of Cc1ccnc(C)c1C(=O)N1CCC(N2CCN(C(c3ccccc3)c3ccccc3)[C@@H](C)C2)CC1 (as salt: hydrochloride) [Example 3C], the melting point is reported as 180 to 188 °C (dec.).

Work on CCNC(=O)N(C)c1cc(C)c(C(=O)N2CCC(C)(N3CCN(C(c4ccccc4)c4ccccc4)[C@@H](C)C3)CC2)c(C)c1 [Example 30H] yielded a melting point of 178 to 188 °C.

In the case of CC[C@@H](c1ccc(OC(F)(F)F)cc1)N1CCN(C2CCN(C(=O)c3c(C)ncnc3C)CC2)C[C@@H]1C [Example 6C], the Ki [1] is reported as 30 nM and the melting point is reported as 225 °C.

With Cc1cccc(C)c1C(=O)N1CCC(N2CCN([C@@H](C)c3ccc(Cc4ccc(Cl)cc4)cc3)[C@@H](C)C2)CC1 [Example 17] the melting point was 170 °C (dec.).

In the case of COC[C@@H](c1ccc(C(F)(F)F)cc1)N1CCN(C2(C)CCN(C(=O)c3c(C)ncnc3C)CC2)C[C@@H]1C [^14C-Vicriviroc, 1-[(4,6-dimethyl-5-pyrimidinyl)carbonyl]-4-[4-[2-methoxy-1 (R)-[4-(trifluoromethyl)phenyl]ethyl]-3(S)-methyl-1-piperazinyl]-4-methylpiperidine], the “Excretion of radioactivity as % of dose, feces” value (shortened to “Excretion … as % of dose, feces”) ([5]; monkey female) is reported as 56.4 % of dose, the “Excretion of radioactivity as % of dose, urine” value (shortened to “Excretion … as % of dose, urine”) ([5]; monkey female) is reported as 25.8 % of dose and the “Excretion … as % of dose, feces” value ([5]; monkey male) is reported as 48.6 % of dose. For the same compound, the “Excretion … as % of dose, urine” value ([5]; monkey male) was 26.3 % of dose, the “Excretion … as % of dose, feces” value ([6]; rat female) was 72.9 % of dose and the “Excretion … as % of dose, urine” value ([6]; rat female) was 15.6 % of dose. The “Excretion … as % of dose, feces” value ([6]; rat male) was 69.1 % of dose and the “Excretion … as % of dose, urine” value ([6]; rat male) was 18.0 % of dose.

With Cc1ncnc(C)c1C(=O)N1CCC(C)(N2CCN(C(c3ccc(C(F)(F)F)cc3)c3ccc(C(F)(F)F)cc3)[C@@H](C)C2)CC1 [Example 30F] the melting point was 180 to 192 °C.

In the case of CC(=O)c1ccc([C@H](C)N2CCN(C3CCN(C(=O)c4c(N)cccc4Cl)CC3)C[C@@H]2C)cc1 [Example 18], the melting point is reported as 210 °C.

C[C@H]1CN(C2(C)CCN(C(=O)C3(c4ccc(C#N)cc4)CC3)CC2)CCN1C(c1ccccc1)c1ccccc1 [Example 30E] showed a melting point of 84 to 90 °C.

Cc1ncnc(C)c1C(=O)N1CCC(C)(N2CCN(C(c3ccccc3)c3ccccc3)[C@@H](C)C2)CC1 [Example 30C] gave a melting point of 175 to 178 °C.

Cc1cccc(C)c1C(=O)N1CCC(N2CCN([C@@H](C)c3ccccc3)[C@@H](C)C2)CC1 [Example 15] gave a melting point of 195 °C.

In the case of CC(=O)c1ccc([C@H](C)N2CCN(C3(C)CCN(C(=O)c4c(C)cccc4C)CC3)C[C@@H]2C)cc1 [Example 22], the melting point is reported as 80 to 85 °C.
